US9695155B2, “Herbicidal substituted pyrimidinyloxy benzene compounds” (E. I. DU PONT DE NEMOURS AND COMPANY, priority 2013, dated 2017)

Assays:
[1] = test system: pigweed; test: Test F preemergence; assay type: in vivo, Amaranthus retroflexus; details: 21 days, scale 0 to 100
Text: (§1) Seeds of plant species selected from bermudagrass (Cynodon dactylon), surinam grass (Brachiaria decumbens), large (Lg) crabgrass (Digitaria sanguinalis), crabgrass, naked (naked crabgrass, Digitaria nuda), foxtail, green (green foxtail, Setaria viridis), johnsongrass (Sorghum halepense), kochia (Kochia scoparia), morningglory (pitted morningglory, Ipomoea lacunosa), nutsedge, purple (purple nutsedge, Cyperus rotundus), ragweed (common ragweed, Ambrosia elatior), mustard, black (black mustard, Brassica nigra), guineagrass (Panicum maximum), dallisgrass (Paspalum dilatatum), barnyardgrass (Echinochloa crus-galli), sandbur (southern sandbur, Cenchrus echinatus), sowthistle (common sowthistle, Sonchus oleraceous), Italian ryegrass (Lolium multiflorum), signalgrass (broadleaf signalgrass, Brachiaria platyphylla), dayflower (Virginia (VA) dayflower, Commelina virginica), bluegrass (annual bluegrass, Poa annua), quackgrass (Elytrigia repens), mallow (common mallow, Malva sylvestris), buckwheat, wild (wild buckwheat, Polygonum convolvulus), leafy spurge (Euphorbia esula), chickweed (common chickweed, Stellaria media), wild poinsettia (Euphorbia heterophylla), and pigweed (Amaranthus retroflexus) were planted into a blend of loam soil and sand and treated preemergence with test chemicals formulated in a non-phytotoxic solvent mixture which included a surfactant.
(§2) Treated plants and controls were maintained in a greenhouse for 21 days, after which time all species were compared to controls and visually evaluated. Plant response ratings, summarized in Table F, are based on a scale of 0 to 100 where 0 is no effect and 100 is complete control. A dash (-) response means no test result.

[2] = test system: quackgrass; test: Test F preemergence; assay type: in vivo, Elytrigia repens; details: 21 days, scale 0 to 100
Text: as §1, §2

[3] = test system: Italian ryegrass; test: Test F preemergence; assay type: in vivo, Lolium multiflorum; details: 21 days, scale 0 to 100
Text: as §1, §2

[4] = test system: spring barley; test: Test D postemergence; assay type: in vivo, Hordeum vulgare; details: Hordeum vulgare, post-emergence, Postemergence, scale 0 to 100 (0 no effect, 100 complete control), read-out: Plant response rating, Barley, Spring
Text: (§3) Seeds of plant species selected from bluegrass (annual bluegrass, Poa annua), blackgrass (Alopecurus myosuroides), canarygrass (littleseed canarygrass, Phalaris minor), chickweed (common chickweed, Stellaria media), galium (catchweed bedstraw, Galium aparine), bromegrass, downy (downy bromegrass, Bromus tectorum), field poppy (Papaver rhoeas), field violet (Viola arvensis), green foxtail (Setaria viridis), deadnettle (henbit deadnettle, Lamium amplexicaule), Italian ryegrass (Lolium multiflorum), kochia (Kochia scoparia), lambsquarters (Chenopodium album), oilseed rape (Brassica napus), pigweed (Amaranthus retroflexus), chamomile (scentless chamomile, Matricaria inodora), Russian thistle (Salsola kali), speedwell (bird's-eye speedwell, Veronica persica), spring barley (Hordeum vulgare), spring wheat (Triticum aestivum), wild buckwheat (Polygonum convolvulus), wild mustard (Sinapis arvensis), wild oat (Avena fatua), wild radish (Raphanus raphanistrum), windgrass (Apera spica-venti), winter barley (Hordeum vulgare), and winter wheat (Triticum aestivum) were planted into a silt loam soil and treated preemergence with test chemicals formulated in a non-phytotoxic solvent mixture which included a surfactant.
(§4) At the same time, these species were planted in pots containing Redi-Earth® planting medium (Scotts Company, 14111 Scottslawn Road, Marysville, Ohio 43041) comprising spaghnum peat moss, vermiculite, wetting agent and starter nutrients and treated with postemergence applications of the test chemicals formulated in the same manner. Plants ranged in height from 2 to 18 cm (1- to 4-leaf stage). Treated plants and controls were maintained in a controlled growth environment for 7 to 21 days after which time all species were compared to controls and visually evaluated. Plant response ratings, summarized in Table D, are based on a scale of 0 to 100 where 0 is no effect and 100 is complete control. A dash (-) response means no test result.

[5] = test system: winter barley; test: Test D postemergence; assay type: in vivo, Hordeum vulgare; details: Hordeum vulgare, post-emergence, Postemergence, scale 0 to 100 (0 no effect, 100 complete control), read-out: Plant response rating, Barley, Winter
Text: as §3, §4

[6] = test system: blackgrass; test: Test D postemergence; assay type: in vivo, Alopecurus myosuroides; details: Alopecurus myosuroides, post-emergence, Postemergence, scale 0 to 100 (0 no effect, 100 complete control), read-out: Plant response rating, Blackgrass
Text: as §3, §4

[7] = test system: kochia; test: Test D preemergence; assay type: in vivo, Kochia scoparia; details: Bassia scoparia, pre-emergence
Text: as §3, §4

[8] = test system: deadnettle; test: Test D postemergence; assay type: in vivo, Lamium amplexicaule; details: Lamium amplexicaule, post-emergence
Summary of the method: (§5)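 Visual rating vs untreated controls, 0 = no effect, 100 = complete control, taken 7–21 d after treatment. Pre: silt loam soil. Post: potting medium, plants 2–18 cm, 1–4 leaf. Formulation: non-phytotoxic solvent mix + surfactant.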

[9] = test system: wild mustard; test: Test D postemergence; assay type: in vivo, Sinapis arvensis; details: Brassica, post-emergence
Summary of the method: as §5

[10] = test system: field violet; test: Test D preemergence; assay type: in vivo, Viola arvensis; details: Viola arvensis, pre-emergence
Text: as §3, §4

[11] = test system: green foxtail; test: Test D postemergence; assay type: in vivo, Setaria viridis; details: Setaria viridis, post-emergence
Text: as §3, §4

[12] = test system: bromegrass, downy; test: Test D preemergence; assay type: in vivo, Bromus tectorum; details: Bromus tectorum, pre-emergence
Summary of the method: as §5

## N#Cc1cccc(Oc2ncc(Cl)cn2)c1-n1cc(OC(F)F)cn1 [Compound 97]
[1]; 16 g ai/ha
  Plant response rating, Pigweed: 100
[1]; 31 g ai/ha
  Plant response rating, Pigweed: 100
[1]; 62 g ai/ha
  Plant response rating, Pigweed: 100
[1]; 125 g ai/ha
  Plant response rating, Pigweed: 100
[1]; 250 g ai/ha
  Plant response rating, Pigweed: 100
[2]; 16 g ai/ha
  Plant response rating, Quackgrass: 0
[2]; 31 g ai/ha
  Plant response rating, Quackgrass: 35
[2]; 62 g ai/ha
  Plant response rating, Quackgrass: 50
[2]; 125 g ai/ha
  Plant response rating, Quackgrass: 95
[2]; 250 g ai/ha
  Plant response rating, Quackgrass: 100
[3]; 16 g ai/ha
  Plant response rating, Ryegrass, Italian: 0
[3]; 31 g ai/ha
  Plant response rating, Ryegrass, Italian: 35
[3]; 62 g ai/ha
  Plant response rating, Ryegrass, Italian: 70
[3]; 125 g ai/ha
  Plant response rating, Ryegrass, Italian: 85
[3]; 250 g ai/ha
  Plant response rating, Ryegrass, Italian: 100

## Fc1cccc(Oc2ncc(Cl)cn2)c1-n1cc(C(F)F)nn1 [Compound 141, 5-chloro-2-[2-[4-(difluoromethyl)-1H-1,2,3-triazol-1-yl]-3-fluorophenoxy]pyrimidine]
[4]; 16 g ai/ha
  plant injury at 16 g/ha: 10%
[4]; 31 g ai/ha
  plant injury at 31 g/ha: 20%
[4]; 62 g ai/ha
  plant injury at 62 g/ha: 25%
[4]; 125 g ai/ha
  plant injury at 125 g/ha: 25%
[5]; 16 g ai/ha
  plant injury at 16 g/ha: 20%
[5]; 31 g ai/ha
  plant injury at 31 g/ha: 20%
[5]; 62 g ai/ha
  plant injury at 62 g/ha: 25%
[5]; 125 g ai/ha
  plant injury at 125 g/ha: 35%
[6]; 62 g ai/ha
  pest or weed control at 62 g/ha: 35%
[6]; 16 g ai/ha
  pest or weed control at 16 g/ha: 10%
[6]; 31 g ai/ha
  pest or weed control at 31 g/ha: 25%
[6]; 125 g ai/ha
  pest or weed control at 125 g/ha: 55%
[7]; 16 g ai/ha, scale 0 (no effect) to 100 (complete control), read-out: Plant response rating, Kochia
  pest or weed control at 16 g/ha: 85%
[7]; 31 g ai/ha, scale 0-100, read-out: Plant response rating, Kochia
  pest or weed control at 31 g/ha: 100%
[7]; 62 g ai/ha, scale 0-100, read-out: Plant response rating, Kochia
  pest or weed control at 62 g/ha: 100%
[7]; 125 g ai/ha, scale 0-100, read-out: Plant response rating, Kochia
  pest or weed control at 125 g/ha: 100%
[8]; 16 g ai/ha, scale 0-100, read-out: Plant response rating, Deadnettle
  pest or weed control at 16 g/ha: 100%
[8]; 31 g ai/ha, scale 0 to 100 (0 no effect, 100 complete control), read-out: Plant response rating, Deadnettle
  pest or weed control at 31 g/ha: 100%
[8]; 62 g ai/ha, scale 0 to 100 (0 no effect, 100 complete control), read-out: Plant response rating, Deadnettle
  pest or weed control at 62 g/ha: 100%
[8]; 125 g ai/ha, scale 0 to 100 (0 no effect, 100 complete control), read-out: Plant response rating, Deadnettle
  pest or weed control at 125 g/ha: 100%
[9]; 16 g ai/ha, scale 0-100, read-out: Plant response rating, Mustard, Wild
  pest or weed control at 16 g/ha: 80%
[9]; 31 g ai/ha, scale 0 to 100 (0 no effect, 100 complete control), read-out: Plant response rating, Mustard, Wild
  pest or weed control at 31 g/ha: 100%
[9]; 62 g ai/ha, scale 0 to 100 (0 no effect, 100 complete control), read-out: Plant response rating, Mustard, Wild
  pest or weed control at 62 g/ha: 100%
[9]; 125 g ai/ha, scale 0 to 100 (0 no effect, 100 complete control), read-out: Plant response rating, Mustard, Wild
  pest or weed control at 125 g/ha: 100%
[10]; 16 g ai/ha, scale 0 (no effect) to 100 (complete control), read-out: Plant response rating, Field Violet
  pest or weed control at 16 g/ha: 100%
[10]; 31 g ai/ha, scale 0-100, read-out: Plant response rating, Field Violet
  pest or weed control at 31 g/ha: 100%
[10]; 62 g ai/ha, scale 0-100, read-out: Plant response rating, Field Violet
  pest or weed control at 62 g/ha: 100%
[10]; 125 g ai/ha, scale 0-100, read-out: Plant response rating, Field Violet
  pest or weed control at 125 g/ha: 100%
[11]; 16 g ai/ha, scale 0-100, read-out: Plant response rating, Foxtail, Green
  pest or weed control at 16 g/ha: 15%
[11]; 31 g ai/ha, scale 0 to 100 (0 no effect, 100 complete control), read-out: Plant response rating, Foxtail, Green
  pest or weed control at 31 g/ha: 20%
[11]; 62 g ai/ha, scale 0 to 100 (0 no effect, 100 complete control), read-out: Plant response rating, Foxtail, Green
  pest or weed control at 62 g/ha: 45%
[11]; 125 g ai/ha, scale 0 to 100 (0 no effect, 100 complete control), read-out: Plant response rating, Foxtail, Green
  pest or weed control at 125 g/ha: 100%
[12]; 16 g ai/ha, scale 0 (no effect) to 100 (complete control), read-out: Plant response rating, Bromegrass, Downy
  pest or weed control at 16 g/ha: 30%
[12]; 31 g ai/ha, scale 0-100, read-out: Plant response rating, Bromegrass, Downy
  pest or weed control at 31 g/ha: 45%
[12]; 62 g ai/ha, scale 0-100, read-out: Plant response rating, Bromegrass, Downy
  pest or weed control at 62 g/ha: 85%
[12]; 125 g ai/ha, scale 0-100, read-out: Plant response rating, Bromegrass, Downy
  pest or weed control at 125 g/ha: 95%
